# According to the kinase profiling compilation of Christmann-Franck et al. (2016):
# Legend:
# Assay in all cases: Caliper, Mobility shift assay off-chip
# AXL (human) = AXL (human) (UniProt P30530)
# BLK (human) = BLK (human) (UniProt P51451)
# CAMK2A (human) = CAMK2A (human) (UniProt Q9UQM7)
# CDK1 (human) = CDK1 (human) (UniProt P06493)
# CDK5 CDK5R1 p25 (human) = CDK5 CDK5R1 p25 (human) (UniProt Q15078+Q00535)
# CLK2 (human) = CLK2 (human) (UniProt P49760)
# CSNK1G2 (human) = CSNK1G2 (human) (UniProt P78368)
# CSNK1G3 (human) = CSNK1G3 (human) (UniProt Q9Y6M4)
# DAPK1 (human) = DAPK1 (human) (UniProt P53355)
# DCLK1 (human) = DCLK1 (human) (UniProt O15075)
# DYRK3 (human) = DYRK3 (human) (UniProt O43781)
# DYRK4 (human) = DYRK4 (human) (UniProt Q9NR20)
# [1] = test system: EGFR (human), P00533 [T790M]
# EPHA8 (human) = EPHA8 (human) (UniProt P29322)
# EPHB1 (human) = EPHB1 (human) (UniProt P54762)
# [2] = test system: FGFR3 (human), P22607 [K650E]
# FRK (human) = FRK (human) (UniProt P42685)
# HIPK1 (human) = HIPK1 (human) (UniProt Q86Z02)
# HIPK2 (human) = HIPK2 (human) (UniProt Q9H2X6)
# ITK (human) = ITK (human) (UniProt Q08881)
# KIT (human) = KIT (human) (UniProt P10721)
# MARK4 (human) = MARK4 (human) (UniProt Q96L34)
# MERTK (human) = MERTK (human) (UniProt Q12866)
# NTRK3 (human) = NTRK3 (human) (UniProt Q16288)
# PASK (human) = PASK (human) (UniProt Q96RG2)
# [3] = test system: PDGFRA (human), P16234 [V561D]
# PHKG1 (human) = PHKG1 (human) (UniProt Q16816)
# PRKCI (human) = PRKCI (human) (UniProt P41743)
# ROCK1 (human) = ROCK1 (human) (UniProt Q13464)
# ROS1 (human) = ROS1 (human) (UniProt P08922)
# RPS6KA6 KD1 KD2 (human) = RPS6KA6 KD1 KD2 (human) (UniProt Q9UK32)
# TXK (human) = TXK (human) (UniProt P42681)
# YES1 (human) = YES1 (human) (UniProt P07947)
# Chain of DAPK1 (human) (P53355 whole entry, looked up): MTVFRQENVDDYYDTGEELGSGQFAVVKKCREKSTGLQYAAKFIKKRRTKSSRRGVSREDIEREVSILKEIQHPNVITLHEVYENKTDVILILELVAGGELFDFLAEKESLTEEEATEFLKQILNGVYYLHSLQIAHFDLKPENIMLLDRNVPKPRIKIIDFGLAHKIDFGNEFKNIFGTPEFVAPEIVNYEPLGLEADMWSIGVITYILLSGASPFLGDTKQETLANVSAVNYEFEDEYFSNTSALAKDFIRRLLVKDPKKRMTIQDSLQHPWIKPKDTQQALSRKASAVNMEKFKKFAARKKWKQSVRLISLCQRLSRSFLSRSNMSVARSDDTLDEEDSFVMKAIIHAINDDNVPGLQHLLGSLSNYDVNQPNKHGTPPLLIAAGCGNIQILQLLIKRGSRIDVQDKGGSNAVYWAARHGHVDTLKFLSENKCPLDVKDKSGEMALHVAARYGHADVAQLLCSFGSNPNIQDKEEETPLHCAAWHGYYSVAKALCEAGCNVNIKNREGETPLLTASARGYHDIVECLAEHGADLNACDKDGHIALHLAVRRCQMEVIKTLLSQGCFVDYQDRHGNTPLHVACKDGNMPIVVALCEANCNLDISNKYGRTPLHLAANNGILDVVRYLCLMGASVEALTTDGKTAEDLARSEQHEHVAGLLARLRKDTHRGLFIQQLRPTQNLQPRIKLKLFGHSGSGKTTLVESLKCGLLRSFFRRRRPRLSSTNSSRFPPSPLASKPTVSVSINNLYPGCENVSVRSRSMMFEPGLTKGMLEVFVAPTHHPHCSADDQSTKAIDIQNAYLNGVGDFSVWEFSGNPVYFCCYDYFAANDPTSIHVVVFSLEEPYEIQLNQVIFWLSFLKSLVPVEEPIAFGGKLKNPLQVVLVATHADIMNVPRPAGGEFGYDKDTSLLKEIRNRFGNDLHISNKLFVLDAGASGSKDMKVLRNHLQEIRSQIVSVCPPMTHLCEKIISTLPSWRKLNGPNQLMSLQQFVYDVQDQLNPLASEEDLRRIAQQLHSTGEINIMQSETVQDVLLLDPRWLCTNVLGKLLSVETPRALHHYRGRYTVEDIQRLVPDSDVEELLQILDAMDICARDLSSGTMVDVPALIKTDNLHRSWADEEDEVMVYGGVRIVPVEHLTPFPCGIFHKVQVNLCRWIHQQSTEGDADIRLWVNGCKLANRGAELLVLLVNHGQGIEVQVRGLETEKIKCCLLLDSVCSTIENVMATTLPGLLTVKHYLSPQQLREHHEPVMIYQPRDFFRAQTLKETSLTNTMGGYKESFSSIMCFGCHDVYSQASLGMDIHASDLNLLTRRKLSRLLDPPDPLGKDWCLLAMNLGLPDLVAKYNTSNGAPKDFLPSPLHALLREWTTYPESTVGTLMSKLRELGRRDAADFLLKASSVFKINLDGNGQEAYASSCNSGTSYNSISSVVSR
# Chain of CDK1 (human) (P06493 whole entry, looked up): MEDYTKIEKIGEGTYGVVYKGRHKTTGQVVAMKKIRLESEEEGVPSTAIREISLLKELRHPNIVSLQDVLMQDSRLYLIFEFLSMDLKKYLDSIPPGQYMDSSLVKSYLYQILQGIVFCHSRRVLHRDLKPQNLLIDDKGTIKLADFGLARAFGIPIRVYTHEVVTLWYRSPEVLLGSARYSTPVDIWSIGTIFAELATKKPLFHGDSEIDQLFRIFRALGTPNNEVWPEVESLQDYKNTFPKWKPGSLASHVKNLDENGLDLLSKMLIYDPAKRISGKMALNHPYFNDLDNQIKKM
# Chain of EGFR (human), P00533 [T790M] (P00533 whole entry T790M, looked up): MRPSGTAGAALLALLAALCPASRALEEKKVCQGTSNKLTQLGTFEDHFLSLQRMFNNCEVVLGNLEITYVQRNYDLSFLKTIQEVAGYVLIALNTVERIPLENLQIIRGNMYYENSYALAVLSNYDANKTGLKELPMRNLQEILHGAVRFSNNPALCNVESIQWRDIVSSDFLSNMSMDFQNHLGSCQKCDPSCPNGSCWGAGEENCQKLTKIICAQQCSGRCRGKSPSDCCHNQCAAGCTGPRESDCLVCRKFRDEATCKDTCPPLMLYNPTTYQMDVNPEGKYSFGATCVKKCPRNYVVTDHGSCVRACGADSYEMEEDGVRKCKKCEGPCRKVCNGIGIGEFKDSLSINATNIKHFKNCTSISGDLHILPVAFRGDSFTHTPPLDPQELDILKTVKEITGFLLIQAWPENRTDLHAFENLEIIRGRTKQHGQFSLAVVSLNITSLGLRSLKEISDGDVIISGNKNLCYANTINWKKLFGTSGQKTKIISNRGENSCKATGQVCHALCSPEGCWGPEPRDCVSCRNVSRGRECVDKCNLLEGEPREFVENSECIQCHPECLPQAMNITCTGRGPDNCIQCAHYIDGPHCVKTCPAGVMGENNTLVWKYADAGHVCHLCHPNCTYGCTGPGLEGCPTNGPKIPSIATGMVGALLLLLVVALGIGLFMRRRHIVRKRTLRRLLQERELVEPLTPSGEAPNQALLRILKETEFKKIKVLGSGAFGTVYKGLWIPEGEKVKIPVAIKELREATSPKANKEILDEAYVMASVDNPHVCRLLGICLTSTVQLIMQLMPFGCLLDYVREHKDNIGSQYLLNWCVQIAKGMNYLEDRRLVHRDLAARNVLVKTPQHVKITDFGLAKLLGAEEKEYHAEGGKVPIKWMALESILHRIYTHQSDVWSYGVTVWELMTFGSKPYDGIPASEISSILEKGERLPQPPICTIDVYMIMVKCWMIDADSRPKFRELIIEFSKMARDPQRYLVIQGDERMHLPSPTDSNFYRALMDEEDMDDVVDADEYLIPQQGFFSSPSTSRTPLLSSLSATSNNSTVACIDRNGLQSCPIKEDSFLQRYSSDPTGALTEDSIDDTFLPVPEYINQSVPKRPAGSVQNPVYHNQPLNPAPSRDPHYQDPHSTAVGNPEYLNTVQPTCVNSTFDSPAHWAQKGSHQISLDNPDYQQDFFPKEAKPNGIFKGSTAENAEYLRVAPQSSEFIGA
# Chain of DYRK3 (human) (O43781 whole entry, looked up): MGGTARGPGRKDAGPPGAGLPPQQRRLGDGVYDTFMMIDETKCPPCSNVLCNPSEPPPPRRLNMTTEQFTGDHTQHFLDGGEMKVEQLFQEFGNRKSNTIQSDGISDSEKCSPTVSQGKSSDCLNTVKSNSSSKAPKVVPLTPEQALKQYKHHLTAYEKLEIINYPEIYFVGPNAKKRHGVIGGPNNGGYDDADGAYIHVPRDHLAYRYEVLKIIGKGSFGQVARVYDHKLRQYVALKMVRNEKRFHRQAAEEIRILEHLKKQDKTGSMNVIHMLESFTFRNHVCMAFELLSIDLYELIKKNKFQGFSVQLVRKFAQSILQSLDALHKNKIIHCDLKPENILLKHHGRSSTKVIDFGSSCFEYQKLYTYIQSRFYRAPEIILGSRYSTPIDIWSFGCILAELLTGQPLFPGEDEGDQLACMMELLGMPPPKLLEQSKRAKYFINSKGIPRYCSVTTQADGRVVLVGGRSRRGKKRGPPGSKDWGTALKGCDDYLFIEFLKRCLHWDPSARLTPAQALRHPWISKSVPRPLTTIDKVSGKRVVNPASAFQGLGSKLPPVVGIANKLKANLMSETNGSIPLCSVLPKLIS
# Chain of ITK (human) (Q08881 whole entry, looked up): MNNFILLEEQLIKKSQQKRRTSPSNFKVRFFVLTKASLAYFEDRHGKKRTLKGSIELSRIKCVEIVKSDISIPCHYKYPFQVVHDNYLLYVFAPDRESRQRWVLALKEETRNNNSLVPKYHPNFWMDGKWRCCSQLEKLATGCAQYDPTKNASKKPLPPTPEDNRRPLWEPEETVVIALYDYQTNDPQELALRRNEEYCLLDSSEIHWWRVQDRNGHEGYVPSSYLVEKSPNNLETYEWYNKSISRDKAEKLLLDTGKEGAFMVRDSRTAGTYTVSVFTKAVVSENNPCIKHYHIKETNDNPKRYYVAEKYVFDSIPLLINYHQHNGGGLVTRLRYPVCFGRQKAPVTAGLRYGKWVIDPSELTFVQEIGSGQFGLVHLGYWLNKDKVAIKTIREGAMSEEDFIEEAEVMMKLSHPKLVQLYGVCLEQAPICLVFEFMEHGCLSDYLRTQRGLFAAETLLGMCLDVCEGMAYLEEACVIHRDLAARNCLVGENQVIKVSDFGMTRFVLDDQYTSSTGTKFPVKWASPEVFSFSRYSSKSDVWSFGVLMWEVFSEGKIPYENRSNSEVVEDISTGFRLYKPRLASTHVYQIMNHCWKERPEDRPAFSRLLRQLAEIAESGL
# Chain of DCLK1 (human) (O15075 whole entry, looked up): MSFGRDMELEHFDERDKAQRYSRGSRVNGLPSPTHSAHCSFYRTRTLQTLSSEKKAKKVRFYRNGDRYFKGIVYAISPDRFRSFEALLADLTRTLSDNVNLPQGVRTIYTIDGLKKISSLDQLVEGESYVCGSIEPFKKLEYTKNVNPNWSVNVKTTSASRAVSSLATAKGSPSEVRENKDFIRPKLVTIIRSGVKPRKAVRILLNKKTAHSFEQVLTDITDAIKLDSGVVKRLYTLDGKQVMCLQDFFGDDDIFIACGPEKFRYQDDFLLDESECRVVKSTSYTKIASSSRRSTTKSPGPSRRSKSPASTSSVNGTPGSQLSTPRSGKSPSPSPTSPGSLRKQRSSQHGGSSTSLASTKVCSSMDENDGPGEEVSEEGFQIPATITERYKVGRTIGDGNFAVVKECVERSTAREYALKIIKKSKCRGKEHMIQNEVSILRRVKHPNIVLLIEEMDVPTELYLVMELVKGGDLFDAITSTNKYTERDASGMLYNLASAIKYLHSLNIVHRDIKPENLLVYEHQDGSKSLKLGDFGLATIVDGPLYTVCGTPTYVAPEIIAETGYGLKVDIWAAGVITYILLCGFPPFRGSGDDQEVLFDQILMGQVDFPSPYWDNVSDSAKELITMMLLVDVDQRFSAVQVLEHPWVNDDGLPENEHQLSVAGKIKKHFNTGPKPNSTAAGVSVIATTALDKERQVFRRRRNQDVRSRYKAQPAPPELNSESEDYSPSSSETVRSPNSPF
structure (smiles),measurement,setting,value
O=C(CCc1ccc2ccc3ncc(C4CCNCC4)cc3c(=O)c2c1)NCc1ccccn1,inhibition,AXL (human); compound 0.1 µM,6.1%
same,inhibition,AXL (human); compound 1.0 µM,20.3%
same,inhibition,BLK (human); compound 0.1 µM,-0.5%
same,inhibition,BLK (human); compound 1.0 µM,16.6%
same,inhibition,CAMK2A (human); compound 0.1 µM,-8.9%
same,inhibition,CAMK2A (human); compound 1.0 µM,-3.1%
same,inhibition,CDK1 (human); compound 0.1 µM,-3.9%
same,inhibition,CDK1 (human); compound 1.0 µM,1.2%
same,inhibition,CDK5 CDK5R1 p25 (human); compound 0.1 µM,2.2%
same,inhibition,CDK5 CDK5R1 p25 (human); compound 1.0 µM,0.3%
same,inhibition,CLK2 (human); compound 0.1 µM,3.4%
same,inhibition,CLK2 (human); compound 1.0 µM,4.1%
same,inhibition,CSNK1G2 (human); compound 0.1 µM,2.7%
same,inhibition,CSNK1G2 (human); compound 1.0 µM,5.8%
same,inhibition,CSNK1G3 (human); compound 0.1 µM,0.3%
same,inhibition,CSNK1G3 (human); compound 1.0 µM,15.2%
same,inhibition,DAPK1 (human); compound 0.1 µM,2.4%
same,inhibition,DAPK1 (human); compound 1.0 µM,0.1%
same,inhibition,DCLK1 (human); compound 0.1 µM,-26.1%
same,inhibition,DCLK1 (human); compound 1.0 µM,-5.4%
same,inhibition,DYRK3 (human); compound 0.1 µM,-1.4%
same,inhibition,DYRK3 (human); compound 1.0 µM,2.9%
same,inhibition,DYRK4 (human); compound 0.1 µM,1.8%
same,inhibition,DYRK4 (human); compound 1.0 µM,0.5%
same,inhibition,[1]; compound 0.1 µM,1.6%
same,inhibition,[1]; compound 1.0 µM,-11.1%
same,inhibition,EPHA8 (human); compound 0.1 µM,9.4%
same,inhibition,EPHA8 (human); compound 1.0 µM,5.1%
same,inhibition,EPHB1 (human); compound 0.1 µM,1%
same,inhibition,EPHB1 (human); compound 1.0 µM,3.3%
same,inhibition,[2]; compound 0.1 µM,-1.7%
same,inhibition,[2]; compound 1.0 µM,2.1%
same,inhibition,FRK (human); compound 0.1 µM,7.1%
same,inhibition,FRK (human); compound 1.0 µM,6.2%
same,inhibition,HIPK1 (human); compound 0.1 µM,7.2%
same,inhibition,HIPK1 (human); compound 1.0 µM,-0.1%
same,inhibition,HIPK2 (human); compound 0.1 µM,3.6%
same,inhibition,HIPK2 (human); compound 1.0 µM,3.9%
same,inhibition,ITK (human); compound 0.1 µM,-5%
same,inhibition,ITK (human); compound 1.0 µM,-1.8%
same,inhibition,KIT (human); compound 0.1 µM,-1.6%
same,inhibition,KIT (human); compound 1.0 µM,6.6%
same,inhibition,MARK4 (human); compound 0.1 µM,0%
same,inhibition,MARK4 (human); compound 1.0 µM,-3.4%
same,inhibition,MERTK (human); compound 0.1 µM,2.5%
same,inhibition,MERTK (human); compound 1.0 µM,15.5%
same,inhibition,NTRK3 (human); compound 0.1 µM,6%
same,inhibition,NTRK3 (human); compound 1.0 µM,10.4%
same,inhibition,PASK (human); compound 0.1 µM,6.7%
same,inhibition,PASK (human); compound 1.0 µM,3.2%
same,inhibition,[3]; compound 0.1 µM,-12.5%
same,inhibition,[3]; compound 1.0 µM,21.5%
same,inhibition,PHKG1 (human); compound 0.1 µM,7.9%
same,inhibition,PHKG1 (human); compound 1.0 µM,1.2%
same,inhibition,PRKCI (human); compound 0.1 µM,-0.6%
same,inhibition,PRKCI (human); compound 1.0 µM,1.4%
same,inhibition,ROCK1 (human); compound 0.1 µM,4.2%
same,inhibition,ROCK1 (human); compound 1.0 µM,8.2%
same,inhibition,ROS1 (human); compound 0.1 µM,5.1%
same,inhibition,ROS1 (human); compound 1.0 µM,-12.4%
same,inhibition,RPS6KA6 KD1 KD2 (human); compound 0.1 µM,5.9%
same,inhibition,RPS6KA6 KD1 KD2 (human); compound 1.0 µM,-8.4%
same,inhibition,TXK (human); compound 0.1 µM,-5.1%
same,inhibition,TXK (human); compound 1.0 µM,-9.7%
same,inhibition,YES1 (human); compound 0.1 µM,-0.7%
same,inhibition,YES1 (human); compound 1.0 µM,-5.3%
Cn1cc(-c2cnc3ccc4ccc(CS(=O)(=O)NC5CCCCC5)cc4c(=O)c3c2)cn1,inhibition,AXL (human); compound 0.01 µM,-2.8%
same,inhibition,AXL (human); compound 0.1 µM,11.7%
same,inhibition,BLK (human); compound 0.01 µM,0.8%
same,inhibition,BLK (human); compound 0.1 µM,15.8%
same,inhibition,CAMK2A (human); compound 0.01 µM,-12.3%
same,inhibition,CAMK2A (human); compound 0.1 µM,-3.8%
same,inhibition,CDK1 (human); compound 0.01 µM,-5.7%
same,inhibition,CDK1 (human); compound 0.1 µM,1.6%
same,inhibition,CDK5 CDK5R1 p25 (human); compound 0.01 µM,8.4%
same,inhibition,CDK5 CDK5R1 p25 (human); compound 0.1 µM,-2%
same,inhibition,CLK2 (human); compound 0.01 µM,-6.3%
same,inhibition,CLK2 (human); compound 0.1 µM,-5.2%
same,inhibition,CSNK1G2 (human); compound 0.01 µM,4.3%
same,inhibition,CSNK1G2 (human); compound 0.1 µM,1.3%
same,inhibition,CSNK1G3 (human); compound 0.01 µM,0.7%
same,inhibition,CSNK1G3 (human); compound 0.1 µM,-0.7%
same,inhibition,DAPK1 (human); compound 0.01 µM,13.1%
same,inhibition,DAPK1 (human); compound 0.1 µM,0.1%
same,inhibition,DCLK1 (human); compound 0.01 µM,5.9%
same,inhibition,DCLK1 (human); compound 0.1 µM,12%
same,inhibition,DYRK3 (human); compound 0.01 µM,1.8%
same,inhibition,DYRK3 (human); compound 0.1 µM,19.6%
same,inhibition,DYRK4 (human); compound 0.01 µM,8.3%
same,inhibition,DYRK4 (human); compound 0.1 µM,12.1%
same,inhibition,[1]; compound 0.01 µM,-4.4%
same,inhibition,[1]; compound 0.1 µM,-7.2%
same,inhibition,EPHA8 (human); compound 0.01 µM,15.6%
same,inhibition,EPHA8 (human); compound 0.1 µM,0.3%
same,inhibition,EPHB1 (human); compound 0.01 µM,5.1%
same,inhibition,EPHB1 (human); compound 0.1 µM,-8%
same,inhibition,[2]; compound 0.01 µM,-2.1%
same,inhibition,[2]; compound 0.1 µM,5.1%
same,inhibition,FRK (human); compound 0.01 µM,0.2%
same,inhibition,FRK (human); compound 0.1 µM,3.2%
same,inhibition,HIPK1 (human); compound 0.01 µM,1.9%
same,inhibition,HIPK1 (human); compound 0.1 µM,4.6%
same,inhibition,HIPK2 (human); compound 0.01 µM,-0.3%
same,inhibition,HIPK2 (human); compound 0.1 µM,7%
same,inhibition,ITK (human); compound 0.01 µM,-2.6%
same,inhibition,ITK (human); compound 0.1 µM,15.3%
same,inhibition,KIT (human); compound 0.01 µM,-3.5%
same,inhibition,KIT (human); compound 0.1 µM,13.6%
same,inhibition,MARK4 (human); compound 0.01 µM,7.1%
same,inhibition,MARK4 (human); compound 0.1 µM,2.2%
same,inhibition,MERTK (human); compound 0.01 µM,11%
same,inhibition,MERTK (human); compound 0.1 µM,9.5%
same,inhibition,NTRK3 (human); compound 0.01 µM,8.4%
same,inhibition,NTRK3 (human); compound 0.1 µM,-0.4%
same,inhibition,PASK (human); compound 0.01 µM,1.5%
same,inhibition,PASK (human); compound 0.1 µM,18.4%
same,inhibition,[3]; compound 0.01 µM,4.1%
same,inhibition,[3]; compound 0.1 µM,19.6%
same,inhibition,PHKG1 (human); compound 0.01 µM,6.4%
same,inhibition,PHKG1 (human); compound 0.1 µM,14.9%
same,inhibition,PRKCI (human); compound 0.01 µM,0.9%
same,inhibition,PRKCI (human); compound 0.1 µM,1%
same,inhibition,ROCK1 (human); compound 0.01 µM,3.1%
same,inhibition,ROCK1 (human); compound 0.1 µM,4%
same,inhibition,ROS1 (human); compound 0.01 µM,21.2%
same,inhibition,ROS1 (human); compound 0.1 µM,6.6%
same,inhibition,RPS6KA6 KD1 KD2 (human); compound 0.01 µM,5.8%
same,inhibition,RPS6KA6 KD1 KD2 (human); compound 0.1 µM,3.2%
same,inhibition,TXK (human); compound 0.01 µM,-5.5%
same,inhibition,TXK (human); compound 0.1 µM,4.8%
same,inhibition,YES1 (human); compound 0.01 µM,-1.4%
same,inhibition,YES1 (human); compound 0.1 µM,-1.7%
